Measured values reported in ChEMBL document CHEMBL3045768, “Potential anti-inflammatory activity and ulcerogenicity study of some novel pyrimido[4,5:4,5]pyrimido[1,6-a]azepine derivatives” (Med Chem Res, 2012).

Key:
Rattus norvegicus [1] = test: Anti-inflammatory activity inRattus norvegicus albino (rat) assessed as inhibition of carrageenan-induced paw edema at 20 umol/kg, ip administered 1 hr before challenge measured after 3 hr relative to diclofenac-sodium; type: functional
Rattus norvegicus [2] = test: Toxicity inRattus norvegicus albino (rat) assessed as ulcerogenicity at 20 umol/kg, po qd for 3 days; type: organism-based; conditions: in vivo, 72 h
Rattus norvegicus [3] = test: Anti-inflammatory activity inRattus norvegicus albino (rat) assessed as inhibition of carrageenan-induced paw edema at 20 umol/kg, ip administered 1 hr before challenge measured after 3 hr; type: functional
Rattus norvegicus [4] = test: Anti-inflammatory activity inRattus norvegicus albino (rat) assessed as inhibition of carrageenan-induced paw edema at 20 umol/kg, ip administered 1 hr before challenge measured after 2 hr; type: functional
Rattus norvegicus [5] = test: Anti-inflammatory activity inRattus norvegicus albino (rat) assessed as inhibition of carrageenan-induced paw edema at 20 umol/kg, ip administered 1 hr before challenge measured after 1 hr; type: functional
Rattus norvegicus [6] = test: Anti-inflammatory activity inRattus norvegicus albino (rat) assessed as inhibition of carrageenan-induced paw edema at 24 umol/kg, ip administered 1 hr before challenge measured after 3 hr; type: functional
Rattus norvegicus [7] = test: Anti-inflammatory activity in ip dosedRattus norvegicus albino (rat) assessed as inhibition of carrageenan-induced paw edema administered 1 hr before challenge measured after 3 hr; type: functional, organism-based
Rattus norvegicus [8] = test: Anti-inflammatory activity inRattus norvegicus albino (rat) assessed as inhibition of carrageenan-induced paw edema at 12 umol/kg, ip administered 1 hr before challenge measured after 3 hr; type: functional
Rattus norvegicus [9] = test: Anti-inflammatory activity inRattus norvegicus albino (rat) assessed as inhibition of carrageenan-induced paw edema at 18 umol/kg, ip administered 1 hr before challenge measured after 3 hr; type: functional

Row | IC50 (Rattus norvegicus [7]) | Structure (SMILES) | inhibition in vivo at 20 µmol/kg (Rattus norvegicus [1]) | UI (Rattus norvegicus [2]) | inhibition in vivo at 20 µmol/kg (Rattus norvegicus [3]) | inhibition in vivo at 20 µmol/kg (Rattus norvegicus [4]) | inhibition in vivo at 20 µmol/kg (Rattus norvegicus [5]) | inhibition in vivo at 24 µmol/kg (Rattus norvegicus [6]) | inhibition in vivo at 12 µmol/kg (Rattus norvegicus [8]) | inhibition in vivo at 18 µmol/kg (Rattus norvegicus [9])
1 |  | O=C(SCc1nc2c(c(=O)[nH]1)C1C(N3CCCC3)CCCCN1C(=O)N2c1ccccc1)c1ccccc1O (stereo not drawn) | 56.4% | 3.4 | 49.7% | 36.9% | 29.8% |  |  | 
2 |  | O=C1N(c2ccccc2)c2nc(CN3CCCCC3)[nH]c(=O)c2C2C(N3CCCC3)CCCCN12 (stereo not drawn) | 48.4% |  | 42.4% | 37.2% | 28% |  |  | 
3 |  | N#CC1=C(NC(=O)Cc2ccccc2Nc2c(Cl)cccc2Cl)N(c2ccccc2)C(=O)N2CCCCC(N3CCCC3)C12 (stereo not drawn) | 76.7% | 4.1 | 67.2% | 48.5% | 31.9% |  |  | 
4 |  | O=C1N(c2ccccc2)c2nc(CCN3CCOCC3)[nH]c(=O)c2C2C(N3CCCC3)CCCCN12 (stereo not drawn) | 59.9% | 3.4 | 52.5% | 52.2% | 38.8% |  |  | 
5 |  | O=C1N(c2ccccc2)c2nc[nH]c(=O)c2C2C(N3CCCC3)CCCCN12 (stereo not drawn) | 37.8% |  | 33.1% | 26.8% | 11% |  |  | 
6 |  | O=C1N(c2ccccc2)c2ncnc(N3CCCCC3)c2C2C(N3CCCC3)CCCCN12 (stereo not drawn) | 31.9% |  | 27.9% | 17.4% | 10.3% |  |  | 
7 |  | Nc1ncnc2c1C1C(N3CCCC3)CCCCN1C(=O)N2c1ccccc1 (stereo not drawn) | 38.5% |  | 33.7% | 22.8% | 17.6% |  |  | 
8 | 11.73 µmol/kg | O=C(O)CSCc1nc2c(c(=O)[nH]1)C1C(N3CCCC3)CCCCN1C(=O)N2c1ccccc1 (stereo not drawn) | 97.7% | 2.7 | 85.6% | 73.2% | 66.4% | 89.6% | 51.2% | 69.3%
9 |  | O=C1N(c2ccccc2)c2nc(-c3ccccc3O)[nH]c(=O)c2C2C(N3CCCC3)CCCCN12 (stereo not drawn) | 42.5% |  | 37.2% | 27.9% | 21.9% |  |  | 
10 |  | O=C1N(c2ccccc2)c2nc(CCN3CCCC3)[nH]c(=O)c2C2C(N3CCCC3)CCCCN12 (stereo not drawn) | 50.6% |  | 44.3% | 32.5% | 20.5% |  |  | 
11 |  | O=C1N(c2ccccc2)c2nc(Cc3ccccc3Nc3c(Cl)cccc3Cl)[nH]c(=O)c2C2C(N3CCCC3)CCCCN12 (stereo not drawn) | 51.7% |  | 45.3% | 35.2% | 29.7% |  |  | 
12 | 7.26 µmol/kg | O=C([O-])Cc1ccccc1Nc1c(Cl)cccc1Cl.[Na+] [DICLOFENAC SODIUM] |  | 9 | 87.6% | 83.5% | 68.6% | 88.2% | 59.5% | 79.3%
13 |  | O=C1N(c2ccccc2)c2nc(CCN3CCCCC3)[nH]c(=O)c2C2C(N3CCCC3)CCCCN12 (stereo not drawn) | 47.3% |  | 41.4% | 35.7% | 26.8% |  |  | 
14 |  | O=C1N(c2ccccc2)c2ncnc(N3CCCC3)c2C2C(N3CCCC3)CCCCN12 (stereo not drawn) | 31.1% |  | 27.3% | 14.8% | 9.5% |  |  | 
15 |  | O=C1N(c2ccccc2)c2ncn(CN3CCCC3)c(=O)c2C2C(N3CCCC3)CCCCN12 (stereo not drawn) | 37.2% |  | 32.6% | 22.3% | 16.2% |  |  | 
16 |  | O=C1N(c2ccccc2)c2nc(CN3CCCC3)[nH]c(=O)c2C2C(N3CCCC3)CCCCN12 (stereo not drawn) | 53.6% |  | 48.7% | 42.2% | 36.2% |  |  | 
17 |  | N#CC1=C(NC(=O)c2ccccc2O)N(c2ccccc2)C(=O)N2CCCCC(N3CCCC3)C12 (stereo not drawn) | 74.7% | 3.4 | 65.4% | 53.8% | 44.7% |  |  | 
18 |  | O=C1N(c2ccccc2)c2ncnc(N3CCOCC3)c2C2C(N3CCCC3)CCCCN12 (stereo not drawn) | 38.6% |  | 33.8% | 21.2% | 17.7% |  |  | 
19 |  | O=C(Cc1ccccc1Nc1c(Cl)cccc1Cl)SCc1nc2c(c(=O)[nH]1)C1C(N3CCCC3)CCCCN1C(=O)N2c1ccccc1 (stereo not drawn) | 61.3% | 2.6 | 53.1% | 45.8% | 33.1% |  |  | 
20 |  | O=C1N(c2ccccc2)c2ncn(CN3CCOCC3)c(=O)c2C2C(N3CCCC3)CCCCN12 (stereo not drawn) | 34.3% |  | 30.1% | 18.5% | 13.1% |  |  | 
21 |  | O=C1N(c2ccccc2)c2ncn(CN3CCCCC3)c(=O)c2C2C(N3CCCC3)CCCCN12 (stereo not drawn) | 33.4% |  | 29.3% | 16.4% | 11.9% |  |  | 
22 |  | O=C1N(c2ccccc2)c2nc(CN3CCOCC3)[nH]c(=O)c2C2C(N3CCCC3)CCCCN12 (stereo not drawn) | 71.2% | 4.3 | 62.4% | 57.5% | 51.9% |  |  | 
